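Assay format: 96-well plates, 48-hour exposure. GI50 marks 50% less growth. The concentration for full growth arrest is given as TGI.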

Common to all, as to assay: NCI tumour cell line growth inhibition, 48 h
Assay [1] concerns M14 melanoma.
Assay [2] concerns TK-10 renal.
Assay [3] relates to MCF7 breast.
In assay [4] the test system is HL-60(TB) leukemia.
Assay [5] concerns HOP-92 NSCLC.
The subject of assay [6] is KM12 colon.
For assay [7], the system named is COLO 205 colon.
For assay [8], the system named is RXF 393 renal.
Assay [9] deals with ACHN renal.
In assay [10] the test system is NCI-H460 lung.

Consider `CN1CCN(C)C12C=c1ccccc1=CC21CC1`, for which the TGI is 34.8 µM in [1]; greater than 100 µM in assay [2]; greater than 100 µM in assay [3]; 46.1 µM in assay [4]; 79.5 µM in assay [5]; 68.4 µM in assay [6]. In addition, the TGI in assay [7] was 25.6 µM; in [8] it was greater than 92.6 µM; in assay [9], greater than 100 µM; in [10] it was greater than 75.1 µM.

Take `Oc1ccc(NCc2nc3ccccc3[nH]2)cc1`: the GI50 is greater than 100 µM in assay [1]; greater than 100 µM in [2]; 32.8 µM in assay [3]; greater than 100 µM in assay [4]; 12.8 µM in [5]; greater than 100 µM in assay [6]. Further, the GI50 is 69.1 µM in assay [7], 30.3 µM in [8], greater than 100 µM in assay [9] and 41.9 µM in assay [10]. In addition, the TGI is greater than 100 µM in assay [1]; greater than 100 µM in assay [2]; greater than 100 µM in assay [3]; greater than 100 µM in assay [4]; 53 µM in [5]; greater than 100 µM in assay [6]. The TGI in assay [7], in assay [8], in [9] and in assay [10] was greater than 100 µM throughout.

As to `NC(=O)c1ccc(I)c(N)c1`, the GI50 in assay [1], in [2], in [3], in [4], in assay [5] and in assay [6] was greater than 100 µM each time. Also, the GI50 in assay [7], in assay [8], in assay [9] and in assay [10] was greater than 100 µM in each case. Moreover, the TGI in assay [1], in assay [2], in assay [3], in assay [4], in [5] and in assay [6] was greater than 100 µM each time. For the same molecule, the TGI in assay [7], in assay [8], in assay [9] and in assay [10] was greater than 100 µM each time.

As to `CS(=O)(=O)c1ccc([C@H]2O[C@@H](CO)C[C@]2(O)c2ccc(S(C)(=O)=O)cc2)cc1`, the GI50 in [2], in assay [3], in [4], in [5], in assay [6] and in [7] was greater than 100 µM each time. Also, the GI50 in [8], in [9] and in [10] was greater than 100 µM throughout. Moreover, the TGI in [2], in assay [3], in assay [4], in assay [5], in [6] and in assay [7] was greater than 100 µM in each case. For the same molecule, the TGI in assay [8], in assay [9] and in assay [10] was greater than 100 µM each time.

Regarding `COc1cc([N+](=O)[O-])cc2c3c(n(C)c12)[C@@]1(C)CCC2c4ccc(OCc5ccccc5)cc4CCC2C1C3` (stereo partly specified), the GI50 was greater than 100 µM in assay [1]; 86 µM in [2]; greater than 100 µM in assay [3]; greater than 100 µM in assay [6]; 29.3 µM in [7]; 40.8 µM in assay [8]. For the same molecule, the GI50 was greater than 100 µM in assay [9] and 90.1 µM in assay [10]. Also, the TGI in assay [1], in [2], in assay [3], in assay [6], in assay [7] and in assay [8] was greater than 100 µM in each case. In addition, the TGI in assay [9] and in assay [10] was greater than 100 µM each time.

Take `COc1ccc(-c2cnnc3c(-c4cccc(C(F)(F)F)c4)cnn23)cc1`: the GI50 in [1] was greater than 100 µM; in [3], greater than 100 µM; in [4], greater than 100 µM; in [6], greater than 100 µM; in assay [7], greater than 100 µM; in [8] it was 0.0291 µM. The GI50 in assay [9] was 3.52 µM; in [10], 4.67 µM. Further, the TGI in assay [1] is greater than 100 µM; in assay [3], greater than 100 µM; in [4], greater than 100 µM; in assay [5], 2.85 µM; in [6], greater than 100 µM; in assay [7], greater than 100 µM. The TGI in [8] is 3.07 µM; in [9], greater than 100 µM; in assay [10], greater than 100 µM.

Consider `CC1=CC(=Nc2ccc(N(CCCl)CCCl)cc2)C=C(C)C1=O`, for which the GI50 was 0.603 µM in assay [1]; 1.94 µM in [2]; 0.413 µM in assay [3]; 0.309 µM in [4]; 0.392 µM in [5]; 2.64 µM in assay [6]. Further, the figures for the GI50 in [7], in assay [9] and in [10] were 1.49 µM, 0.29 µM and 0.181 µM, respectively. The TGI in assay [1] worked out at 3.98 µM; in assay [2] it was 5.55 µM; in assay [3], 3.98 µM; in assay [4] it was 2.9 µM; in assay [5], 2.06 µM; in assay [6], 11.3 µM. The TGI in assay [7] stood at 4.67 µM; in assay [9] it was 1.61 µM; in assay [10] it was 1.96 µM.

Take `COc1ccc(NC2=CC(=O)C(=O)c3ccccc32)nn1`: the TGI in [1] was 0.668 µM; in [2] it was 9.92 µM; in assay [3], 2.14 µM; in assay [4] it was 0.898 µM; in [6], 1.62 µM; in [7], 3.21 µM. Moreover, the TGI in assay [8] stood at 3.78 µM; in assay [9], 5.1 µM; in assay [10], 3.49 µM.

With `Nc1nc(Cl)c2ncn(Cc3ccc(C45CC6CC(CC(C6)C4)C5)c(O)c3)c2n1`, the GI50 in assay [2] was 2.2 µM; in [3], 3.14 µM; in assay [4], 1.22 µM; in assay [5], 1.48 µM; in [6] it was 2.49 µM; in assay [7], 5.43 µM. Also, the GI50 was 1.87 µM in assay [8], 3.35 µM in assay [9] and 4.03 µM in assay [10]. Besides, the TGI was 8.93 µM in [2]; 13 µM in [3]; 11.7 µM in assay [4]; 6.19 µM in assay [5]; 15.3 µM in assay [6]; 27.8 µM in assay [7]. In addition, the TGI amounted to 6.56 µM in assay [8], 13.9 µM in [9] and 15.6 µM in assay [10].

The record behind these values is PubChem BioAssay (NCI).
